SMILES strings stand for the structures.

The target in this experiment is T1, human GnRH receptor (Homo sapiens, UniProt P30968).
T1 construct: expressed in transfected cells; host or cells: CHO (Chinese Hamster Ovary) cells; membrane fraction
T1 sequence (P30968 1-328): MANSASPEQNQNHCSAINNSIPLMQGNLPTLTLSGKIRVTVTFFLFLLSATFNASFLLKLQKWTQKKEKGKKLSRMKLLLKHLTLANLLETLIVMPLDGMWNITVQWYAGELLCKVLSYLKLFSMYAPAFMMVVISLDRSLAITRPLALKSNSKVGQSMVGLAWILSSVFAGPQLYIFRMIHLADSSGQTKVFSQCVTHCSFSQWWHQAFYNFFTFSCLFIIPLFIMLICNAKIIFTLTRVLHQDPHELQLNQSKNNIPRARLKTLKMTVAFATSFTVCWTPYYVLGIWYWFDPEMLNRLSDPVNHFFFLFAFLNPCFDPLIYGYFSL
As to the kind of experiment: 125I-leuprorelin binding assay (binding inhibitory rate). Particulars: 10 nM of the testing compound; 800 pM 125I-leuprorelin; 10 μg human GnRH receptor membrane fraction (CHO cells); room temperature 1 hour; read-out: Binding inhibitory ratio (%). The method, then:
10 μL of a 3×10^−4 M aqueous solution of leuprorelin and 10 μL of 0.01 mg/mL lactoperoxidase were placed in a tube, and 10 μL (37 MBq) of a Na^125I solution was added thereto. After stirring, 10 μL of 0.001% H2O2 was added to allow the mixture to undergo a reaction at room temperature for 20 minutes. 700 μL of a 0.05% TFA solution was added to stop the reaction, and purification by reversed phase HPLC was carried out. The conditions for HPLC are described below. ^125I-leuprorelin was eluted at a retention time of 26 to 27 minutes.
Human GnRH receptor-expressing CHO cells were cultured until the cells were reached a 90% confluent state in a T-150 flask. The cells were separated using 0.02% EDTA-PBS and were centrifuged at 500×g for 5 minutes. A homogenate buffer for cells (10 mM NaHCO3, 1 mM EDTA, 1 mM PMSF, 0.5 μg/mL Pepstatin, 2 μg/mL Leupeptin, pH 7.4) was added to the cell pellet, and the mixture was homogenized with a Polytron homogenizer. After centrifugation of the homogenate at 4° C. and at 1000×g for 10 minutes, the supernatant was placed in an ultracentrifuge tube and was centrifuged at 4° C. and at 49,300×g for 1 hour to obtain a precipitate of a membrane fraction. This precipitate was suspended in an assay buffer (50 mM Tris-HCl, 150 mM NaCl, 5 mM EDTA, pH 7.4) and then dispensed and stored at −80° C., so that the suspension can be thawed every time it is taken for use.
A ^125I-leuprorelin binding assay was carried out using 200 μL of an assay buffer containing 10 μg of human GnRH receptor membrane fraction, 800 pM of ^125I-leuprorelin and 10 nM of the testing compound.
The non-specific binding radioactivity was measured in the presence of 1 μM of non-labeled leuprorelin. After leaving the mixture to stand at room temperature for 1 hour, ^125I-leuprorelin was captured on a GF/C filter (PerkinElmer, Inc.), and the filter was washed with ice-cold 50 mM Tris-HCl (pH 7.4) using a cell harvester. After drying the filter, a liquid scintillation cocktail for microplate was added, and the membrane-bound radioactivity was measured using a TopCount.
The value of (TB-SB)/(TB-NSB)×100 (SB: radioactivity upon addition of the compound, TB: maximum binding radioactivity, NSB: non-specific binding radioactivity) was calculated to determine the binding inhibitory rate in the presence of 10 nM of each testing material.
Consider `O=c1[nH]c2ccsc2c(=O)n1-c1cccc(S(=O)(=O)N2CCCc3ccccc32)c1` [Example 1, 3-[3-(3,4-Dihydroquinolin-1(2H)-ylsulfonyl)phenyl]thieno[3,2-d]pyrimidin-2,4(1H,3H)-dione], for which the inhibition at 0.01 µM was found to be 86%. The figure for `O=C(O)c1scc2[nH]c(=O)n(-c3cc(S(=O)(=O)N4CCCCc5sccc54)sc3Cl)c(=O)c12` [Example 6, 3-[2-Chloro-5-(5,6,7,8-tetrahydro-4H-thieno[3,2-b]azepin-4-ylsulfonyl)-3-thienyl]-2,4-dioxo-1,2,3,4-tetrahydrothieno[3,4-d]pyrimidine-5-carboxylic acid] is 97%; for `CC(C)(C)OC(=O)CNC(=O)c1scc2[nH]c(=O)n(-c3cccc(S(=O)(=O)N4CCCc5ccccc54)c3)c(=O)c12` [Example 7 (1), N-({3-[3-(3,4-Dihydroquinolin-1(2H)-ylsulfonyl)phenyl]-2,4-dioxo-1,2,3,4-tetrahydrothieno[3,4-d]pyrimidin-5-yl}carbonyl) glycine tert-butyl ester] it is 92%. In the case of `Cc1nnc(-c2scc3[nH]c(=O)n(-c4cccc(S(=O)(=O)N5CCCc6ccccc65)c4)c(=O)c23)o1` [Example 12, 3-[3-(3,4-dihydroquinolin-1(2H)-ylsulfonyl)phenyl]-5-(5-methyl-1,3,4-oxadiazol-2-yl)thieno[3,4-d]pyrimidin-2,4(1H,3H)-dione], the inhibition at 0.01 µM came out at 72%. The figure for `CNC(=O)c1scc2[nH]c(=O)n(-c3cc(S(=O)(=O)N4CCCc5ccccc54)ccc3Cl)c(=O)c12` [Example 16, 3-[2-Chloro-5-(3,4-dihydroquinolin-1(2H)-ylsulfonyl)phenyl]-N-methyl-2,4-dioxo-1,2,3,4-tetrahydrothieno[3,4-d]pyrimidine-5-carboxamide] is 96%; for `CC(O)c1scc2[nH]c(=O)n(-c3cccc(S(=O)(=O)N4CCCc5ccccc54)c3)c(=O)c12` (stereo not drawn) [Example 24, 3-[3-(3,4-Dihydroquinolin-1(2H)-ylsulfonyl)phenyl]-5-(1-hydroxyethyl)thieno[3,4-d]pyrimidin-2,4(1H,3H)-dione] it is 95%. For the compound `COC(=O)c1scc2[nH]c(=O)n(-c3cc(S(=O)(=O)N4CCCc5ccccc54)cs3)c(=O)c12` [Example 30, Methyl 3-[4-(3,4-dihydroquinolin-1(2H)-ylsulfonyl)-2-thienyl]-2,4-dioxo-1,2,3,4-tetrahydrothieno[3,4-d]pyrimidine-5-carboxylate], the inhibition at 0.01 µM was 110%. The figure for `O=c1[nH]c2csc(CO)c2c(=O)n1-c1cc(S(=O)(=O)N2CCCc3ccccc32)cs1` [Example 31, 3-[4-(3,4-Dihydroquinolin-1(2H)-ylsulfonyl)-2-thienyl]-5-(hydroxymethyl)thieno[3,4-d]pyrimidin-2,4(1H,3H)-dione] is 100%. For `CCN(C(=O)c1csc(-n2c(=O)[nH]c3csc(C(=O)O)c3c2=O)c1)c1ccccc1` [Example 33-2, 3-(4-{[Ethyl(phenyl)amino]carbonyl}-2-thienyl)-2,4-dioxo-1,2,3,4-tetrahydrothieno[3,4-d]pyrimidine-5-carboxylic acid], the inhibition at 0.01 µM turned out to be 85%. As for `O=C(O)c1csc2[nH]c(=O)n(-c3cccc(S(=O)(=O)N4CCCc5ccccc54)c3)c(=O)c12` [Example 34 (3), 3-[3-(3,4-Dihydroquinolin-1(2H)-ylsulfonyl)phenyl]-2,4-dioxo-1,2,3,4-tetrahydrothieno[2,3-d]pyrimidine-5-carboxylic acid], the figure is 100%; as for `COC(=O)c1scc2[nH]c(=O)n(-c3cc(C(=O)N(c4cccc(Br)c4Cl)C4CC4)sc3Cl)c(=O)c12` [Example 37, Methyl 3-(5-{[(3-bromo-2-chlorophenyl)(cyclopropyl)amino]carbonyl}-2-chloro-3-thienyl)-2,4-dioxo-1,2,3,4-tetrahydrothieno[3,4-d]pyrimidine-5-carboxylate], 100%.

Regarding `COC(=O)c1scc2[nH]c(=O)n(-c3cc(C(=O)N(c4cccc(C#N)c4Cl)C4CC4)sc3Cl)c(=O)c12` [Example 38, Methyl 3-(2-chloro-5-{[(2-chloro-3-cyanophenyl)(cyclopropyl)amino]carbonyl}-3-thienyl)-2,4-dioxo-1,2,3,4-tetrahydrothieno[3,4-d]pyrimidine-5-carboxylate], the inhibition at 0.01 µM was 95%.

`N#Cc1cccc(N(C(=O)c2cc(-n3c(=O)[nH]c4csc(CO)c4c3=O)c(Cl)s2)C2CC2)c1Cl` [Example 39, 5-Chloro-N-(2-chloro-3-cyanophenyl)-N-cyclopropyl-4-[5-(hydroxymethyl)-2,4-dioxo-1,2-dihydrothieno[3,4-d]pyrimidine-3(4H)-yl]thiophene-2-carboxamide]: the inhibition at 0.01 µM stood at 101%. The figure for `N#Cc1cccc(N(C(=O)c2cc(-n3c(=O)[nH]c4csc(C(=O)O)c4c3=O)c(Cl)s2)C2CC2)c1Cl` [Example 40, 3-(2-Chloro-5-{[(2-chloro-3-cyanophenyl)(cyclopropyl)amino]carbonyl}-3-thienyl)-2,4-dioxo-1,2,3,4-tetrahydrothieno[3,4-d]pyrimidine-5-carboxylic acid] is 101%; for `N#Cc1cccc(N(C(=O)c2cc(-n3c(=O)[nH]c4csc(C(N)=O)c4c3=O)c(Cl)s2)C2CC2)c1Cl` [Example 41, 3-(2-Chloro-5-{[(2-chloro-3-cyanophenyl)(cyclopropyl)amino]carbonyl}-3-thienyl)-2,4-dioxo-1,2,3,4-tetrahydrothieno[3,4-d]pyrimidine-5-carboxamide] it is 100%.

(Values after US20090062258A1, “FUSED PYRIMIDINE DERIVATIVE AND USE THEREOF” (Takeda Pharmaceutical Company Limited, priority 2005, published 2009).)
